{"source": "patent US8486426B2", "about": "“Methods and compositions for treatment of dermal conditions” (Kimberly-Clark Worldwide, Inc., priority 2002, dated 2013)", "origin": "cited, not measured here", "key": {"[1]": {"conditions": "for deaths among liver failure cases: reported by/through 2001"}, "[2]": {"tested_on": "dermatophytes, yeast and molds that typically cause onychomycosis"}, "onychomycosis": {"tested_on": "onychomycosis", "conditions": "for Clinical cure rate: total dystrophic onychomycosis (TDO), oral drug"}, "[3]": {"conditions": "in vivo"}}}
{"smiles": "CCC(C)n1ncn(-c2ccc(N3CCN(c4ccc(OCC5COC(Cn6cncn6)(c6ccc(Cl)cc6Cl)O5)cc4)CC3)cc2)c1=O", "note": "(centres unmarked) [SPORANOX, itraconazol]", "values": [{"measurement": "deaths among pulmonary edema cases", "setting": "[1]; as of 2001", "result": 13, "unit": "deaths"}, {"measurement": "cases of liver failure reported", "setting": "[1]; in vivo", "result": 24, "unit": "cases"}, {"measurement": "cases of pulmonary edema (probable association)", "setting": "[1]; in vivo", "result": 58, "unit": "cases"}, {"measurement": "deaths among liver failure cases", "setting": "[1]", "result": 11, "unit": "deaths"}]}
{"smiles": "Cc1cc(C2CCCCC2)n(O)c(=O)c1", "note": "[PENLAC, ciclopirox olamine]", "values": [{"measurement": "in vitro action on fungi", "setting": "[2]", "result": "fungicidal"}, {"measurement": "cure rate", "setting": "onychomycosis; mild to moderate DLSO, average 40% of nail involved, no matrix infection, topical", "result": 7, "unit": "%"}]}
{"smiles": "CN(C/C=C/C#CC(C)(C)C)Cc1cccc2ccccc12", "note": "[TERBINAFINE, terbinafine]", "values": [{"measurement": "cases of liver failure reported", "setting": "[1]; in vivo", "result": 16, "unit": "cases"}, {"measurement": "liver transplants reported", "setting": "[1]; in vivo", "result": 2, "unit": "liver transplants"}, {"measurement": "deaths among liver failure cases", "setting": "[1]", "result": 11, "unit": "deaths"}, {"measurement": "persistence after treatment", "setting": "[3]", "result": "several months"}, {"measurement": "time at which detectable in the nail bed", "setting": "[3]", "result": "one week"}, {"measurement": "Clinical cure rate", "setting": "onychomycosis", "result": 37, "unit": "%"}]}
{"smiles": "OC(Cn1cncn1)(Cn1cncn1)c1ccc(F)cc1F", "note": "[fluconazole]", "values": [{"measurement": "Clinical cure rate", "setting": "onychomycosis", "result": "about 38%"}]}
{"smiles": "CCC(C)(C)c1ccc(CC(C)CN2C[C@@H](C)O[C@@H](C)C2)cc1", "note": "(some centres unmarked) [LOCERYL, amorolfine]", "values": [{"measurement": "effective in share of the cases", "setting": "onychomycosis; mild onychomycosis with no matrix involvement, topical 5% solution", "result": "about 40%"}]}
